# According to US12157730B2, “Heteroaryl derivative, method for producing same, and pharmaceutical composition comprising same as effective component” (VORONOI INC., priority 2019, dated 2024):
# Molecular target: T1, Ba/F3 cell EGFR Exon20 ins NPH (Homo sapiens, UniProt P00533, INS773NPH)
# T1 construct: expressed in transfected cells; host or cells: Ba/F3
# Test: Ba/F3 cell proliferation suppression, EGFR Exon20 ins NPH
# Format: cell-based
# Details: GI50 class; Ba/F3 cell line with NPH inserted at Exon20 of EGFR; 72 hours
# Summary of the method: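 Seed 3000–5000 cells/well; after 24 h add compound (12 conc., 0.3 nM–50 um final); incubate 72 h; add CellTiter-Glo, 10 min room temperature; read luminescence; GI50 from % growth vs control, triplicate.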
row,Ba/F3 (NPH) Activity,Compound
1,A (GI50 < 50 nM),"C=CC(=O)Nc1cc(Nc2cc(N3OCC[C@@H]3c3cccc4ccccc34)ncn2)c(OC)cc1N1CCC(N2CCN(C)CC2)CC1 [compound 482, N-(4-methoxy-2-(4-(4-methylpiperazine-1-yl)piperidine-1-yl)-5-((6-((R)-3-(naphthalene-1-yl)isoxazolidine-2-yl)pyrimidine-4-yl)amino)phenyl)acrylamide]"
2,A (GI50 < 50 nM),"C=CC(=O)Nc1cc(Nc2cc(N3OCC[C@@H]3c3cccc(F)c3F)ncn2)c(OC)cc1N1CCC(N2CCN(CCC)CC2)CC1 [compound 342, N-(5-((6-((R)-3-(2,3-difluorophenyl)isoxazolidine-2-yl)pyrimidine-4-yl)amino)-4-methoxy-2-(4-(4-propylpiperazine-1-yl)piperidine-1-yl)phenyl)acrylamide]"
3,A (GI50 < 50 nM),"C=CC(=O)Nc1cc(Nc2cc(N3OCC[C@@H]3c3ccc(F)cc3F)ncn2)c(OC)cc1N1CCC(N(C)CCOC)CC1 [compound 387, N-(5-((6-((R)-3-(2,4-difluorophenyl)isoxazolidine-2-yl)pyrimidine-4-yl)amino)-4-methoxy-2-(4-((2-methoxyethyl)(methyl)amino)piperidine-1-yl)phenyl)acrylamide]"
4,B (50 nM ≤ GI50 < 500 nM),"C=CC(=O)Nc1cc(Nc2cc(N3OCC[C@@H]3c3ccc(Cl)cc3F)ncn2)c(OC)cc1N1CCC(N2CC[C@H](N(C)C)C2)CC1 [compound 405, N-(5-((6-((R)-3-(4-chloro-2-fluorophenyl)isoxazolidine-2-yl)pyrimidine-4-yl)amino)-2-(4-((S)-3-(dimethylamino)pyrolidine-1-yl)piperidine-1-yl)-4-methoxyphenyl) acrylamide]"
5,A (GI50 < 50 nM),"C=CC(=O)Nc1cc(Nc2cc(N3OCC[C@@H]3c3ccc(F)c(Cl)c3F)ncn2)c(OC)cc1N1CC[C@@H](N(C)C)C1 [compound 599, N-(5-((6-((R)-3-(3-chloro-2,4-difluorophenyl)isoxazolidine-2-yl)pyrimidine-4-yl)amino)-2-((R)-3-(dimethylamino)pyrolidine-1-yl)-4-methoxyphenyl) acrylamide]"

# Continued, compound first:
row,Compound,Ba/F3 (NPH) Activity
1,"C=CC(=O)Nc1cc(Nc2cc(N3OCC[C@@H]3c3cccc(F)c3)ncn2)c(OC)cc1N1CCC(N(C)C)CC1 [Example 245, N-(2-(4-(dimethylamino)piperidine-1-yl)-5-((6-((R)-3-(3-fluorophenyl)isoxazolidine-2-yl)pyrimidine-4-yl)amino)-4-methoxyphenyl) acrylamide]",A (GI50 < 50 nM)
2,"C=CC(=O)Nc1cc(Nc2cc(N3OCC[C@@H]3c3cccc(F)c3)ncn2)c(OC)cc1N1CCC(N2CCOCC2)CC1 [Example 38, N-(5-((6-((R)-3-(3-fluorophenyl)isoxazolidine-2-yl)pyrimidine-4-yl)amino)-4-methoxy-2-(4-morpholinopiperidine-1-yl)phenyl) acrylamide]",A (GI50 < 50 nM)
3,"C=CC(=O)Nc1cc(Nc2cc(N3OCC[C@@H]3c3cccc(C#N)c3)ncn2)c(OC)cc1N1CCC(N2CCN(C3CC3)[C@@H](C)C2)CC1 [Example 125, N-(5-((6-((R)-3-(3-cyanophenyl)isoxazolidine-2-yl)pyrimidine-4-yl)amino)-2-(4-((S)-4-cyclopropyl-3-methylpiperazine-1-yl)piperidine-1-yl)-4-methoxyphenyl) acrylamide]",A (GI50 < 50 nM)
4,"C=CC(=O)Nc1cc(Nc2cc(N3OCC[C@@H]3c3cccc(F)c3)ncn2)c(OC)cc1N1CCC(N2CCN(C3COC3)CC2)CC1 [Example 80, N-(5-((6-((R)-3-(3-fluorophenyl)isoxazolidine-2-yl)pyrimidine-4-yl)amino)-4-methoxy-2-(4-(4-(oxetane-3-yl)piperazine-1-yl)piperidine-1-yl)phenyl) acrylamide]",A (GI50 < 50 nM)
